Measurements reported in patent US20230089867A1, “CYCLIC PENTAMER COMPOUNDS AS PROPROTEIN CONVERTASE SUBTILISIN/KEXIN TYPE 9 (PCSK9) INHIBITORS FOR THE TREATMENT OF METABOLIC DISORDER” (Novartis AG, priority 2018, published 2023).

Molecular target: human PCSK9 (Homo sapiens, UniProt Q8NBP7)
Experiment: PCSK9 ligand binding TR-FRET assay (interference with binding of human PCSK9 to human LDLR)
Details: for Max % inhibition: PCSK9 FRET assay, efficacy (Amax), 100% = 1 uM unlabeled human PCSK9, 0% = DMSO; for IC50: TR-FRET, human PCSK9 Alexa Fluor 647 / human LDLR extracellular domain-Europium Kryptate, read-out: PCSK9 FRET Assay IC50
Method in brief: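 Threefold compound dilutions were pre-incubated 30 min with PCSK9, after which 4 nM Europium Kryptate-tagged human LDLR ectodomain was added for a further 2 h.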

Sequence of human PCSK9 (Q8NBP7 153-692): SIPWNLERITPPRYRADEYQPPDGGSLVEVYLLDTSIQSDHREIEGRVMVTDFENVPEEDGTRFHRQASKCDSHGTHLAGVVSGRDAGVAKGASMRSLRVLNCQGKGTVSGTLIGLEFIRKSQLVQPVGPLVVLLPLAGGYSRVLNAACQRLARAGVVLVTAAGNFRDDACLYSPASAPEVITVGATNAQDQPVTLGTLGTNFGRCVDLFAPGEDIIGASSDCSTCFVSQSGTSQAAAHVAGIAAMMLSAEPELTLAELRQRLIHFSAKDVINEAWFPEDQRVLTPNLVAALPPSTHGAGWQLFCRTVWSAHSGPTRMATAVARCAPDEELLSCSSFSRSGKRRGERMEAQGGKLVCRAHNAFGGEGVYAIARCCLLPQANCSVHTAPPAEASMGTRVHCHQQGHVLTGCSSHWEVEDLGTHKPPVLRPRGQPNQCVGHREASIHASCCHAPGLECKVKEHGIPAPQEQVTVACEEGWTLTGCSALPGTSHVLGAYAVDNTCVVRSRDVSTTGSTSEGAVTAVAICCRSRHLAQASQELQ
Sequence of human PCSK9 (Q8NBP7 31-152 partner limits assumed): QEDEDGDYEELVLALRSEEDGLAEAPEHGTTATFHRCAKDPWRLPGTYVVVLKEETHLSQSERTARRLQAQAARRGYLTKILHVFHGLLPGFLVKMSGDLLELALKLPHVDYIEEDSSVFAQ

Row | SMILES | Max % inhibition [%] | IC50 [nM]
1 | COC[C@@H]1NC(=O)[C@H](C)N(Cc2c(Oc3ccc(-c4cnc(CN(C)C)n4C)cc3)cccc2OC(F)F)C(=O)C[C@@H](C)C(=O)N(C)[C@@H](C)CNC(=O)C[C@H](Cc2ccc(Cl)cc2)N(C)C1=O [Compound 62, (5S,8S,13S,16R)-8-(4-chlorobenzyl)-1-(2-(difluoromethoxy)-6-(4-(2-((dimethylamino)methyl)-1-methyl-1H-imidazol-5-yl)phenoxy)benzyl)-5-(methoxymethyl)-2,7,13,14,16-pentamethyl-1,4,7,11,14-pentaazacyclooctadecane-3,6,10,15,18-pentaone] | 88.46 | 16.8
2 | COC[C@@H]1NC(=O)[C@H](C)N(Cc2ccc(Cl)cc2Oc2ccc(-c3cnc(CN4CCCC4)n3C)cc2)C(=O)C[C@@H](Cc2ccn(C(F)F)n2)C(=O)N(C)[C@@H](C)CNC(=O)C[C@H](Cc2ccc(Cl)cc2)N(C)C1=O [Compound 63, (2S,5S,8S,13S)-1-(4-chloro-2-(4-(1-methyl-2-(pyrrolidin-1-ylmethyl)-1H-imidazol-5-yl)phenoxy)benzyl)-8-(4-chlorobenzyl)-16-((1-(difluoromethyl)-1H-pyrazol-3-yl)methyl)-5-(methoxymethyl)-2,7,13,14-tetramethyl-1,4,7,11,14-pentaazacyclooctadecane-3,6,10,15,18-pentaone] | 103.93 | 87.3
3 | COC[C@@H]1NC(=O)[C@H](C)N(Cc2ccc(Cl)cc2Oc2ccc(-c3cnc(CN(C)C)n3C)cc2)C(=O)C[C@@H](C)C(=O)N(C)[C@H]2CCCC[C@@H]2NC(=O)C[C@H](Cc2ccc(Cl)cc2)N(C)C1=O [Compound 64, (4S,7S,10S,14R,16aS,20aS)-11-(4-chloro-2-(4-(2-((dimethylamino)methyl)-1-methyl-1H-imidazol-5-yl)phenoxy)benzyl)-4-(4-chlorobenzyl)-7-(methoxymethyl)-5,10,14,16-tetramethylhexadecahydrobenzo[l][1,4,7,11,14]pentaazacyclooctadecine-2,6,9,12,15(3H)-pentaone] | 79.08 | 9
4 | COC[C@@H]1NC(=O)[C@H](C)N(Cc2ccc(Cl)cc2Oc2ccc(-c3cnc(CN(C)C)n3C)cc2)C(=O)C[C@@H](Cc2ccccc2)C(=O)N(C)CC(C)(C)NC(=O)C[C@H](Cc2ccc(Cl)cc2)N(C)C1=O [Compound 65, (2S,5S,8S,16R)-16-benzyl-1-(4-chloro-2-(4-(2-((dimethylamino)methyl)-1-methyl-1H-imidazol-5-yl)phenoxy)benzyl)-8-(4-chlorobenzyl)-5-(methoxymethyl)-2,7,12,12,14-pentamethyl-1,4,7,11,14-pentaazacyclooctadecane-3,6,10,15,18-pentaone] | 92.63 | 189
5 | C[C@H]1CNC(=O)C[C@H](Cc2ccc(Cl)cc2)N(C)C(=O)[C@H](CO)NC(=O)[C@H](C)N(Cc2ccccc2Oc2ccc(-c3cnc(CN(C)C)n3C)cc2)C(=O)CCC(=O)N1C [Compound 66, (2S,5S,8S,13S)-8-(4-chlorobenzyl)-1-(2-(4-(2-((dimethylamino)methyl)-1-methyl-1H-imidazol-5-yl)phenoxy)benzyl)-5-(hydroxymethyl)-2,7,13,14-tetramethyl-1,4,7,11,14-pentaazacyclooctadecane-3,6,10,15,18-pentaone] | 91.88 | 77.2
6 | COC[C@@H]1NC(=O)[C@H](C)N(Cc2ccc(Cl)cc2Oc2ccc(-c3cnc(CN4CCCC4)n3C)cc2)C(=O)C[C@@H](Cc2cccc(F)c2F)C(=O)N(C)[C@@H](C)CNC(=O)C[C@H](Cc2ccc(Cl)cc2)N(C)C1=O [Compound 67, (2S,5S,8S,13S,16R)-1-(4-chloro-2-(4-(1-methyl-2-(pyrrolidin-1-ylmethyl)-1H-imidazol-5-yl)phenoxy)benzyl)-8-(4-chlorobenzyl)-16-(2,3-difluorobenzyl)-5-(methoxymethyl)-2,7,13,14-tetramethyl-1,4,7,11,14-pentaazacyclooctadecane-3,6,10,15,18-pentaone] | 96.63 | 0.6
7 | CCOc1ncc(-c2ccc(Oc3cc(Cl)ccc3CN3C(=O)C[C@@H](Cc4ccccc4)C(=O)N(C)[C@@H](C)CNC(=O)C[C@H](Cc4ccc(Cl)cc4)N(C)C(=O)[C@H](COC)NC(=O)[C@@H]3C)cc2)n1C [Compound 68, (2S,5S,8S,13S,16R)-16-benzyl-1-(4-chloro-2-(4-(2-ethoxy-1-methyl-1H-imidazol-5-yl)phenoxy)benzyl)-8-(4-chlorobenzyl)-5-(methoxymethyl)-2,7,13,14-tetramethyl-1,4,7,11,14-pentaazacyclooctadecane-3,6,10,15,18-pentaone] | 77.84 | 30.5
8 | COC[C@@H]1NC(=O)[C@H](C)N(Cc2ccc(Cl)cc2Oc2ccc(-c3cnc(OC)nc3)cc2)C(=O)C[C@@H](Cc2ccccc2)C(=O)N(C)[C@@H](C)CNC(=O)C[C@H](Cc2ccc(Cl)cc2)N(C)C1=O [Compound 69, (2S,5S,8S,13S,16R)-16-benzyl-1-(4-chloro-2-(4-(2-methoxypyrimidin-5-yl)phenoxy)benzyl)-8-(4-chlorobenzyl)-5-(methoxymethyl)-2,7,13,14-tetramethyl-1,4,7,11,14-pentaazacyclooctadecane-3,6,10,15,18-pentaone] | 64.09 | 43
9 | CC[C@H]1C(=O)N[C@@H](COC)C(=O)N(C)[C@@H](Cc2ccc(Cl)cc2)CC(=O)NC[C@H](C)N(C)C(=O)[C@H](Cc2ccccc2)CC(=O)N1Cc1ccc(Cl)cc1Oc1ccc(-c2cnc(CN(C)C)n2C)cc1 [Compound 70, (2S,5S,8S,13S,16R)-16-benzyl-1-(4-chloro-2-(4-(2-((dimethylamino)methyl)-1-methyl-1H-imidazol-5-yl)phenoxy)benzyl)-8-(4-chlorobenzyl)-2-ethyl-5-(methoxymethyl)-7,13,14-trimethyl-1,4,7,11,14-pentaazacyclooctadecane-3,6,10,15,18-pentaone] | 101.10 | 0.9
10 | COC[C@@H]1NC(=O)[C@H](C)N(Cc2ccc(Cl)cc2Oc2ccc(-c3cnc(CN(C)C)n3C)cc2)C(=O)C[C@@H](Cc2ccccc2)C(=O)N(C)[C@@H](C(=O)OC)CNC(=O)C[C@H](Cc2ccc(Cl)cc2)N(C)C1=O [Compound 71, (2S,5S,8S,13R,16R)-methyl 16-benzyl-1-(4-chloro-2-(4-(2-((dimethylamino)methyl)-1-methyl-1H-imidazol-5-yl)phenoxy)benzyl)-8-(4-chlorobenzyl)-5-(methoxymethyl)-2,7,14-trimethyl-3,6,10,15,18-pentaoxo-1,4,7,11,14-pentaazacyclooctadecane-13-carboxylate] | 102.12 | 12.9
11 | COC[C@@H]1NC(=O)[C@H](C)N(Cc2ccc(Cl)cc2Oc2ccc(-c3cnc(CN4CCCC4)n3C)c(F)c2)C(=O)C[C@@H](Cc2ccccc2)C(=O)N(C)[C@@H](C)CNC(=O)C[C@H](Cc2ccc(Cl)cc2)N(C)C1=O [Compound 72, (2S,5S,8S,13S,16R)-16-benzyl-1-(4-chloro-2-(3-fluoro-4-(1-methyl-2-(pyrrolidin-1-ylmethyl)-1H-imidazol-5-yl)phenoxy)benzyl)-8-(4-chlorobenzyl)-5-(methoxymethyl)-2,7,13,14-tetramethyl-1,4,7,11,14-pentaazacyclooctadecane-3,6,10,15,18-pentaone] | 92.57 | 0.5
